Assay results reported in publication PMC7534330, “UHPLC-MS/MS method for pharmacokinetic and bioavailability determination of five bioactive components in raw and various processed products of Polygala tenuifolia in rat plasma” (Pharmaceutical Biology, 2020).

How the values were obtained:
[1] = Pharmacokinetics and absolute bioavailability of five compounds after oral and i.v. administration (UHPLC-MS/MS); type: in vivo; conditions: rat, in vivo; for AUCΔ0-t (dose-normalized) / AUCΔ0-∞ (dose-normalized) / CΔmax (dose-normalized) / half-life / Tmax: SD
Protocol: (§1) A Thermo Hypersil Gold C18 column (3.0 × 100 mm, i.d.; 3 μm) was used for chromatographic separation. An aqueous 10 mM ammonium acetate solution (A) and acetonitrile (B) were selected as the mobile phase components. The optimal gradient program involved the following steps: 5% B (0–1 min), changing to 85% B (1–3.5 min), 85% B (3.5–4.0 min), changing to 5% B (4.0–4.1 min) and 5% B (4.1–5.0 min). The flow rate was set to 0.4 mL/min, the autosampler was maintained at 4 °C and the injection volume was 5 μL.
(§2) UHPLC-MS/MS was conducted by an Applied Biosystems (AB) Sciex Exion LC system (Foster City, CA) connected to a 6500 + triple quad tandem mass spectrometer with an electrospray ionization source. All detection and quantifications were carried out in positive multiple reaction monitoring (MRM) mode. The optimized parameters were programmed as follows: ion source temperature, 500 °C; curtain gas pressure, 30 kPa; ion source gas 1 pressure, 55 kPa; ion source gas 2 pressure, 55 kPa; and ion spray voltage, […]. The chemical structures and ion mass spectra of targeted compounds are shown in Figure 1. The precursor ion and product ion were m/z 517.1 → 174.9 for A5, m/z 547.0 → 204.9 for A6, m/z 753.2 → 205.2 for DSS, m/z 681.3 → 443.3 for TFSA, m/z 236.8 → 103.2 for TMCA and m/z 136.9 → 92.9 for IS. All data were acquired by using AB Sciex Analyst software (version 1.6.3).
(§3) After thawing the frozen blood samples at room temperature, a 100 μL aliquot of plasma was spiked with 50 μL of the IS working solution in 2 mL EP tubes, and 750 μL of methanol was added into each of the tubes. Then, these tubes were mixed on a multi-tube Vortexer for 0.5 min before centrifugation at 11,800×g for 10 min. Finally, 200 μL of the obtained supernatant was transferred to a fresh autosampler vial, and then 5 μL of the sample was injected for analysis.
The SD rats were randomly divided into oral and i.v. groups for A5, A6, DSS, TFSA and TMCA administration (n = 6 in each group). The oral doses of A5, A6, DSS, TFSA and TMCA groups were 7.40, 11.60, 16.00, 50.00 and 3.11 mg/kg, respectively, and the corresponding i.v. doses were 0.74, 1.16, 1.60, 5.00 and 0.31 mg/kg, respectively. Blood samples were collected from the suborbital vein into heparinized tubes before and 0, 0.083, 0.17, 0.25, 0.5, 1, 2, 3, 5 and 8 h after administration. The treatment method of blood samples was the same as that mentioned above.
(§4) The elementary pharmacokinetic parameters of plasma samples were analyzed by DAS 2.0 pharmacokinetic software. One-way analysis of variance (ANOVA) was used for statistical comparison for pharmacokinetic and interaction studies. A p-value < 0.05 indicated a significant difference. The main parameters considered were as follows: AUC0–∞ (the area under the blood concentration-time curve from zero to infinity initial plasma concentration), MRT (the mean residence time), Cmax (peak plasma concentration) and Tmax (time to reach Cmax for oral dose), t1/2 (elimination half-life) (He et al. [2015]). The absolute bioavailability (F) was evaluated as follows: F(%)=(AUCoral×Dosei.v.)/(AUCi.v.×Doseoral)×100%

[2] = Pharmacokinetics of five components in rat plasma after oral administration of RPT, LPT and HPT extracts (UHPLC-MS/MS); conditions: male, SD, in vivo, 1.9 g/kg
Protocol: as §1, §2, §3
Male SD rats were randomly divided into four groups (n = 6 in each group), including the RPT group, LPT group, HPT group and control group. All oral administration samples were mixed with 0.5% CMC-Na (w/v) and then given to rats at a dose equivalent to 1.9 g/kg of RPT extract. The control group was orally treatment with equal volume of 0.5% CMC-Na solution. After a single administration, all blood samples were collected from the orbital vein into heparinized centrifuge tubes before administration (0 h) and at 0.083, 0.17, 0.25, 0.5, 0.75, 1, 1.5, 2, 3, 5, 8 and 12 h after administration and then centrifuged at 4 °C and 11,800×g for 10 min. The separated supernatant samples were preserved at −80 °C until they were measured.
as §4

[3] = Stability of the five analytes in rat plasma; type: in vitro ADME; conditions: rat; for Long-term stability, Mean: 4 weeks; for Short-term stability, Mean: 5 h; for Auto-sampler stability, Mean: 24 h
Protocol: Stock standards of A5, A6, DSS, TFSA, TMCA and IS were prepared in methanol at a concentration of 1 mg/mL. A series of working standard solutions of the targeted compounds ranging from 10 to 20,000 ng/mL and the IS solution at 600 ng/mL were prepared by diluting the stock solutions with methanol and maintained at −20 °C. Calibration standards were freshly prepared by spiking the series of standard solutions (30 μL) including the IS into blank rat plasma (270 μL) to achieve concentrations of 1, 10, 50, 100, 500, 1000, 1600 and 2000 ng/mL. Quality control (QC) samples were prepared independently at low (2 ng/mL), medium (600 ng/mL) and high (1600 ng/mL) concentrations following the same method for the five compounds.
Stability studies included short-term stability (5 h at room temperature, i.e. 25 °C), freeze-thaw stability (three consecutive freeze-thaw cycles from −20 °C to room temperature), autosampler stability (24 h storage in the autosampler at 4 °C) and long-term stability (4 weeks storage at −80 °C). The stability data of all analytes are presented in Supplementary Table S4.

| Compound | AUCΔ0-t (dose-normalized) ([1]; iv) | AUCΔ0-∞ (dose-normalized) ([1]; iv) | CΔmax (dose-normalized) ([1]; iv) | half-life ([1]; iv) | AUCΔ0-t (dose-normalized) ([1]; po) | AUCΔ0-∞ (dose-normalized) ([1]; po) | CΔmax (dose-normalized) ([1]; po) | half-life ([1]; po) | Tmax ([1]; po) | F, absolute bioavailability [1] | Cmax [2] | Freeze-thaw stability, Mean ([3]; 2 ng/mL) | Freeze-thaw stability, Mean ([3]; 600 ng/mL) | Freeze-thaw stability, Mean ([3]; 1600 ng/mL) | Long-term stability, Mean ([3]; 2 ng/mL) | Long-term stability, Mean ([3]; 600 ng/mL) | Long-term stability, Mean ([3]; 1600 ng/mL) | Short-term stability, Mean ([3]; 2 ng/mL) | Short-term stability, Mean ([3]; 600 ng/mL) | Short-term stability, Mean ([3]; 1600 ng/mL) | further results |
| --- | --- | --- | --- | --- | --- | --- | --- | --- | --- | --- | --- | --- | --- | --- | --- | --- | --- | --- | --- | --- | --- |
| COc1cc(C=CC(=O)OCC2OC(OC3(CO)OC(CO)C(O)C3OC(=O)C=Cc3cc(OC)c(O)c(OC)c3)C(O)C(O)C2O)cc(OC)c1O (stereo not shown) [DSS, 3,6′-disinapoyl sucrose] | 106.32 ± 12.09 ng·h/mL | 107.00 ± 12.09 ng·h/mL | 682.88 ± 120.92 ng/mL | 58.8 ± 16.2 min | 2.51 ± 1.07 ng·h/mL | 2.86 ± 1.33 ng·h/mL | 4.39 ± 1.69 ng/mL | 60.6 ± 27 min | 10.2 min | 2.36 % of dose | 74.1 ± 30.2 ng/mL | 89.3% | 97.3% | 99.7% | 95.3% | 97.3% | 93.2% | 95.3% | 98.5% | 98.1% | Auto-sampler stability, Mean ([3]; 2 ng/mL): 92.1%; Auto-sampler stability, Mean ([3]; 600 ng/mL): 97.7%; Auto-sampler stability, Mean ([3]; 1600 ng/mL): 98.6% |
| COc1cc(/C=C/C(=O)O[C@H]2[C@H](O)[C@@H](CO)O[C@@]2(CO)O[C@H]2O[C@H](COC(=O)c3ccc(O)cc3)[C@@H](O)[C@H](O)[C@H]2O)cc(OC)c1OC [TFSA, tenuifoliside A] | 163.79 ± 11.83 ng·h/mL | 163.80 ± 11.83 ng·h/mL | 375.56 ± 13.65 ng/mL | 29.4 ± 3.6 min | 1.92 ± 0.85 ng·h/mL | 1.92 ± 0.85 ng·h/mL | 1.88 ± 0.76 ng/mL | 55.2 ± 12.6 min | ~11.4 min | 1.17 % of dose | 107 ± 47.7 ng/mL | 96.5% | 96.3% | 97.4% | 89.9% | 96.3% | 96.2% | 97.6% | 97.9% | 98.5% | AUC(0-t) ([2]; AUC0-t): 284 ± 185 ng·h/mL; AUC(0-inf) ([2]; AUC0-∞): 297 ± 194 ng·h/mL; MRT last ([2]; MRT0-t): 175 ± 34.8 min; Auto-sampler stability, Mean ([3]; 2 ng/mL): 96.6%; Auto-sampler stability, Mean ([3]; 600 ng/mL): 98.2%; Auto-sampler stability, Mean ([3]; 1600 ng/mL): 96.3% |
